From US20230265151A1, “GIP/GLP1 CO-AGONIST COMPOUNDS” (priority 2020, published 2023)
Read-outs that look alike come from different tables or passages of the source.

What was measured:
Type in all cases: cell-based
[1] = target: T1, hGCGR (Homo sapiens, UniProt P47871); assay: Functional cAMP formation (HTRF) in HEK-293 clonal cells expressing hGCGR, 0.1% bovine casein, without or with 1.0% human serum albumin; details: geometric mean, read-out: hGCGR EC50, nM (SEM, n)
T1 construct: expressed in transfected cells
T1 sequence (P47871 26-477): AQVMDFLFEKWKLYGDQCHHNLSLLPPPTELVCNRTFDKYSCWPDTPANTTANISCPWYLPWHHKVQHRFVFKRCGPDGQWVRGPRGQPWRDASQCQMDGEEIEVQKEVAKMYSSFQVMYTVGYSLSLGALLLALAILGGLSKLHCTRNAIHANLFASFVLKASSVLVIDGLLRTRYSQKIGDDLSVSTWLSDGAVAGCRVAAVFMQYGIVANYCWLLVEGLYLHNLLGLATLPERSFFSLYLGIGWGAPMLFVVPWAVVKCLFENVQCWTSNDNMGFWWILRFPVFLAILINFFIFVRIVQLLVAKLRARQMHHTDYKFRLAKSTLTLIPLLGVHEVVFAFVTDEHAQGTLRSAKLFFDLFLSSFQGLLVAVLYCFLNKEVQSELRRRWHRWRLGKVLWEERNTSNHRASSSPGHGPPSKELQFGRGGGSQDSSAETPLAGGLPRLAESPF
Protocol: (§1) After a 30-min incubation at 37° C., the resulting increase in intracellular cAMP is quantitatively determined using a CisBio cAMP Dynamic 2 HTRF Assay Kit (62AM4PEJ). Briefly, cAMP levels within the cell are detected by adding the cAMP-d2 conjugate in cell lysis buffer (10 µL) followed by the antibody anti-cAMP-Eu^3+-Cryptate, also in cell lysis buffer (10 µL). The resulting competitive assay is incubated for at least 60 min at room temperature, and then is detected using a PerkinElmer Envision® instrument with excitation at 320 nm and emission at 665 nm and 620 nm. Envision units (emission at 665 nm/620 nm* 10,000) are inversely proportional to the amount of cAMP present and are converted to nM cAMP per well us-ing a cAMP standard curve. […] A relative EC50 value and percent top (Emax) are derived by non-linear regression analysis using the percent maximal response vs. the concentration of peptide added, fitted to a four-parameter logistic equation.

[2] = target: T2, hGIPR (Homo sapiens, UniProt P48546); assay: Functional cAMP formation (HTRF) in HEK-293 clonal cells expressing hGIPR, 0.1% bovine casein, without or with 1.0% human serum albumin
T2 construct: expressed in transfected cells
T2 sequence (P48546 22-466): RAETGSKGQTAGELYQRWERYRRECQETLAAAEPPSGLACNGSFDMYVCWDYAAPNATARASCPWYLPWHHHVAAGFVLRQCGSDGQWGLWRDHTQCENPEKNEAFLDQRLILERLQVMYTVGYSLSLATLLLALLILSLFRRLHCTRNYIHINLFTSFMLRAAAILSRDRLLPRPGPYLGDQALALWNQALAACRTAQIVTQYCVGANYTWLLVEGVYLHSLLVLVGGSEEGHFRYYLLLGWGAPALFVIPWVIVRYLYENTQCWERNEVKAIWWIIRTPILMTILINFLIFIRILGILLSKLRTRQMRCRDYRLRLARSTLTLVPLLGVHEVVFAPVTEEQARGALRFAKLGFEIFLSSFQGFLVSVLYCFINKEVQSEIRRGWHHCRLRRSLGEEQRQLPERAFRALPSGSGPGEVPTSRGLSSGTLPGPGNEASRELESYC
Protocol: as §1

[3] = target: hGLP-1R (Homo sapiens, UniProt P43220); assay: Functional cAMP formation (HTRF) in HEK-293 clonal cells expressing hGLP-1R, 0.1% bovine casein, without or with 1.0% human serum albumin; design: expressed in transfected cells; details: percent of maximal response to GLP-1(7-36)NH2
hGLP-1R, sequence (P43220 24-463): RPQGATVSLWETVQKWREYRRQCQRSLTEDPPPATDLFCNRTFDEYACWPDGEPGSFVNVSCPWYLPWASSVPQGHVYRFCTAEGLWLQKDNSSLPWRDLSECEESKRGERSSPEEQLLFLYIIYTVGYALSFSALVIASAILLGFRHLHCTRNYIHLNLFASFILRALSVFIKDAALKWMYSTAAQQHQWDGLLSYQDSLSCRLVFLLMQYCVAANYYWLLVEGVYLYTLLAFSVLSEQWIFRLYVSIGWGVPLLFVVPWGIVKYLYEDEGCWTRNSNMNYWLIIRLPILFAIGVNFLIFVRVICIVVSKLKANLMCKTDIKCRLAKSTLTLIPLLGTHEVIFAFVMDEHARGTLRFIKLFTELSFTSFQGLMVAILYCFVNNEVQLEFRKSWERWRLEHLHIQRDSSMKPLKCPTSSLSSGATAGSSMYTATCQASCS
Protocol: as §1

[4] = cAMP, incubated at 37° C., 0.1% bovine casein (no human serum albumin)
[5] = HEK293, 0.1% bovine casein and 1.0% human serum albumin, 37° C., percent of maximal response to GIP(1-42)NH2, read-out: hGIPR Emax, % ± SEM

CC[C@H](C)[C@H](NC(=O)[C@H](CC(C)C)NC(=O)[C@](C)(Cc1ccc(O)cc1)NC(=O)[C@@H](CCC(=O)O)NC(=O)[C@@H](NC(=O)[C@](C)(Cc1ccccc1)NC(=O)[C@H](CCC(=O)O)NC(=O)C(C)(C)NC(=O)[C@H](CCC(N)=O)NC(=O)[C@H](C)NC(=O)[C@H](CCCCNC(=O)COCCOCCNC(=O)COCCOCCNC(=O)CC[C@H](NC(=O)CCCCCCCCCCCCC(=O)O)C(=O)O)NC(=O)[C@H](CCCN)NC(=O)[C@H](CC(=O)O)NC(=O)[C@H](CC(C)C)NC(=O)[C@](C)(CC(C)C)NC(=O)[C@@H](NC(=O)[C@H](CO)NC(=O)[C@@H](NC(=O)[C@H](CC(=O)O)NC(=O)[C@H](CO)NC(=O)[C@@H](NC(=O)[C@](C)(Cc1ccccc1F)NC(=O)[C@@H](NC(=O)CNC(=O)[C@H](CCC(=O)O)NC(=O)C(C)(C)NC(=O)[C@@H](N)Cc1ccc(O)cc1)[C@@H](C)O)[C@@H](C)O)C(C)C)[C@@H](C)CC)[C@@H](C)CC)C(=O)N[C@@H](CCC(=O)O)C(=O)NCC(=O)NCC(=O)N[C@@H](CCCCNC(=O)COCCOCCNC(=O)COCCOCCNC(=O)CC[C@H](NC(=O)CCCCCCCCCCCCC(=O)O)C(=O)O)C(=O)N[C@@H](CO)C(=O)N[C@@H](CO)C(=O)NCC(=O)N[C@@H](C)C(=O)N1CCC[C@H]1C(=O)N1CCC[C@H]1C(=O)N1CCC[C@H]1C(=O)N[C@@H](CO)C(N)=O [Example 92] was tested, and the EC50 ([1]; 0.1% bovine casein and 1.0% human serum albumin, 37° C.) was > 9950 nM and the EC50 [1, 4] was > 9950 nM.

In the case of CC[C@H](C)[C@H](NC(=O)[C@H](CC(C)C)NC(=O)[C@](C)(Cc1ccc(O)cc1)NC(=O)[C@@H](CCC(=O)O)NC(=O)[C@@H](NC(=O)[C@H](Cc1ccccc1)NC(=O)[C@H](CCC(=O)O)NC(=O)C(C)(C)NC(=O)[C@H](CCC(N)=O)NC(=O)[C@H](C)NC(=O)[C@H](CCCCNC(=O)[C@@H](N)CCCCNC(=O)CC[C@H](NC(=O)CC[C@H](NC(=O)CCCCCCCCCCCCC(=O)O)C(=O)O)C(=O)O)NC(=O)[C@H](CCCN)NC(=O)[C@H](CC(=O)O)NC(=O)[C@H](CC(C)C)NC(=O)[C@](C)(CC(C)C)NC(=O)[C@@H](NC(=O)[C@H](CO)NC(=O)[C@H](Cc1ccncc1)NC(=O)[C@H](CC(=O)O)NC(=O)[C@H](CO)NC(=O)[C@@H](NC(=O)[C@](C)(Cc1ccccc1F)NC(=O)[C@@H](NC(=O)CNC(=O)[C@H](CCC(=O)O)NC(=O)C(C)(C)NC(=O)[C@@H](N)Cc1ccc(O)cc1)[C@@H](C)O)[C@@H](C)O)[C@@H](C)CC)[C@@H](C)CC)C(=O)N[C@@H](CCC(=O)O)C(=O)NCC(=O)NCC(=O)N[C@@H](CCCCNC(=O)[C@@H](N)CCCCNC(=O)CC[C@H](NC(=O)CC[C@H](NC(=O)CCCCCCCCCCCCC(=O)O)C(=O)O)C(=O)O)C(=O)N[C@@H](CO)C(=O)N[C@@H](CO)C(=O)NCC(=O)N[C@@H](C)C(=O)N1CCC[C@H]1C(=O)N1CCC[C@H]1C(=O)N1CCC[C@H]1C(=O)N[C@@H](CO)C(N)=O [Example 39], the Emax [2, 5] is reported as 86.8 ± 3.27% and the Emax ([2]; HEK293, percent of maximal response to GIP(1-42)NH2, 37° C., 0.1% bovine casein, arithmetic mean, read-out: hGIPR Emax, % ± SEM) is reported as 96.5 ± 1.44%.

For CC[C@H](C)[C@H](NC(=O)[C@H](CC(C)C)NC(=O)[C@](C)(Cc1ccc(O)cc1)NC(=O)[C@@H](CCC(=O)O)NC(=O)[C@@H](NC(=O)[C@H](Cc1ccccc1)NC(=O)[C@H](CCC(=O)O)NC(=O)C(C)(C)NC(=O)[C@H](CCC(N)=O)NC(=O)[C@H](C)NC(=O)[C@H](CCCCNC(=O)COCCOCCNC(=O)COCCOCCNC(=O)CC[C@H](NC(=O)CCCCCCCCCCCCC(=O)O)C(=O)O)NC(=O)[C@H](CCCN)NC(=O)[C@H](CC(=O)O)NC(=O)[C@H](CC(C)C)NC(=O)[C@](C)(CC(C)C)NC(=O)[C@@H](NC(=O)[C@H](CO)NC(=O)[C@H](Cc1csc2ccccc12)NC(=O)[C@H](CC(=O)O)NC(=O)[C@H](CO)NC(=O)[C@@H](NC(=O)[C@](C)(Cc1ccccc1F)NC(=O)[C@@H](NC(=O)CNC(=O)[C@H](CCC(=O)O)NC(=O)C(C)(C)NC(=O)[C@@H](N)Cc1ccc(O)cc1)[C@@H](C)O)[C@@H](C)O)[C@@H](C)CC)[C@@H](C)CC)C(=O)N[C@@H](CCC(=O)O)C(=O)NCC(=O)NCC(=O)N[C@@H](CCCCNC(=O)COCCOCCNC(=O)COCCOCCNC(=O)CC[C@H](NC(=O)CCCCCCCCCCCCC(=O)O)C(=O)O)C(=O)N[C@@H](CO)C(=O)N[C@@H](CO)C(=O)NCC(=O)N[C@@H](C)C(=O)N1CCC[C@H]1C(=O)N1CCC[C@H]1C(=O)N1CCC[C@H]1C(=O)N[C@@H](CO)C(N)=O [Example 142], the EC50 [1, 4] was > 9950 nM.

CC[C@H](C)[C@H](NC(=O)[C@H](CC(C)C)NC(=O)[C@](C)(Cc1ccc(O)cc1)NC(=O)[C@@H](CCC(=O)O)NC(=O)[C@@H](NC(=O)[C@H](Cc1ccccc1)NC(=O)[C@H](CCCN)NC(=O)C(C)(C)NC(=O)[C@H](CCC(N)=O)NC(=O)[C@H](C)NC(=O)[C@H](CCCCNC(=O)COCCOCCNC(=O)COCCOCCNC(=O)CC[C@H](NC(=O)CCCCCCCCCOc1ccc(C(=O)O)cc1)C(=O)O)NC(=O)[C@H](CCCN)NC(=O)[C@H](CC(=O)O)NC(=O)[C@H](CC(C)C)NC(=O)[C@](C)(CC(C)C)NC(=O)[C@@H](NC(=O)C(C)(C)NC(=O)[C@H](Cc1ccncc1)NC(=O)[C@H](CC(=O)O)NC(=O)[C@H](CO)NC(=O)[C@@H](NC(=O)[C@](C)(Cc1ccccc1F)NC(=O)[C@@H](NC(=O)CNC(=O)[C@H](CCC(=O)O)NC(=O)C(C)(C)NC(=O)[C@@H](N)Cc1ccc(O)cc1)[C@@H](C)O)[C@@H](C)O)[C@@H](C)CC)[C@@H](C)CC)C(=O)N[C@@H](CCCCNC(=O)COCCOCCNC(=O)COCCOCCNC(=O)CC[C@H](NC(=O)CCCCCCCCCOc1ccc(C(=O)O)cc1)C(=O)O)C(=O)NCC(=O)NCC(=O)N1CCC[C@H]1C(=O)N[C@@H](CO)C(=O)N[C@@H](CO)C(=O)NCC(=O)N[C@@H](C)C(=O)N1CCC[C@H]1C(=O)N1CCC[C@H]1C(=O)N1CCC[C@H]1C(=O)N[C@@H](CO)C(N)=O [Example 351] gave an Emax ([3]; HEK293, read-out: hGLP-1R Emax, % ± SEM, cAMP, 37° C., 0.1% bovine casein and 1.0% human serum albumin) of 91%, an Emax ([3]; HEK293, read-out: hGLP-1R Emax, % ± SEM, cAMP, 37° C., 0.1% bovine casein, arithmetic mean) of 100% and an Emax ([2]; HEK293, read-out: hGIPR Emax, % ± SEM, cAMP, 37° C., 0.1% bovine casein and 1.0% human serum albumin, percent of maximal response to GIP(1-42)NH2) of 67.9%.

In the case of CC[C@H](C)[C@H](NC(=O)[C@H](CC(C)C)NC(=O)[C@](C)(Cc1ccc(O)cc1)NC(=O)[C@@H](CCC(=O)O)NC(=O)[C@@H](NC(=O)[C@H](Cc1ccccc1)NC(=O)[C@H](CCC(=O)O)NC(=O)C(C)(C)NC(=O)[C@H](CCC(N)=O)NC(=O)[C@H](C)NC(=O)[C@H](CCCCNC(=O)COCCOCCNC(=O)COCCOCCNC(=O)CCCCCCCCCCCCC(=O)O)NC(=O)[C@H](CCCN)NC(=O)[C@H](CC(=O)O)NC(=O)[C@H](CC(C)C)NC(=O)[C@](C)(CC(C)C)NC(=O)[C@@H](NC(=O)[C@H](CO)NC(=O)[C@H](Cc1ccc2ccccc2c1)NC(=O)[C@H](CC(=O)O)NC(=O)[C@H](CO)NC(=O)[C@@H](NC(=O)[C@](C)(Cc1ccccc1F)NC(=O)[C@@H](NC(=O)CNC(=O)[C@H](CCC(=O)O)NC(=O)C(C)(C)NC(=O)[C@@H](N)Cc1ccc(O)cc1)[C@@H](C)O)[C@@H](C)O)[C@@H](C)CC)[C@@H](C)CC)C(=O)N[C@@H](CCC(=O)O)C(=O)NCC(=O)NCC(=O)N1CCC[C@H]1C(=O)N[C@@H](CO)C(=O)N[C@@H](CO)C(=O)NCC(=O)N[C@@H](C)C(=O)N1CCC[C@H]1C(=O)N1CCC[C@H]1C(=O)N1CCC[C@H]1C(=O)N[C@@H](CO)C(=O)N[C@@H](CCCCNC(=O)COCCOCCNC(=O)COCCOCCNC(=O)CCCCCCCCCCCCC(=O)O)C(N)=O [Example 257], the Emax ([3]; HEK293, cAMP, 37° C., 0.1% bovine casein, arithmetic mean, read-out: hGLP-1R Emax, % ± SEM) is reported as 82%, the Emax [2, 5] is reported as 72.2% and the Emax ([2]; HEK293, cAMP, 37° C., 0.1% bovine casein, percent of maximal response to GIP(1-42)NH2, arithmetic mean, read-out: hGIPR Emax, % ± SEM) is reported as 90.3%.
